SMILES | melting point [°C]
CCOCc1cc2ccccc2oc1=Nc1ccc(F)cc1 | 84 to 86
CC(C)=NOCc1nc2c(N)nc3cccnc3c2n1CCCNC(=O)OC(C)(C)C | 148 to 150
CS(=O)(=O)c1ccc(C(CC2CCCC2)C(=O)O)cc1C(F)(F)F (stereo not given) | 100 to 102
COC(=O)Nc1ccc(-c2cccc(C3=NC(C)(C)Cc4cc(OC)c5c(c43)CC(C)(C)O5)c2)cc1 | 129 to 133
CS(=O)(=O)c1ccc(-n2cc(-c3ccc(Cl)cc3)nc2-c2ccc(Cl)cc2)cc1 | 169 to 171
CCOC(=O)c1cnoc1-c1ccc(Cl)c(F)c1 | 76 to 77
CC(=O)NCCCCCC(=O)N1CC1C#N (stereo not given) | 74 to 77
Cc1nc(C)c(CO)c(C)n1 | 68
CN(C(=O)COc1cc(-c2ccccc2)nc2ccccc12)N1CCOCC1 | 189
CCC(C)(CC)C(=O)N[C@H]1C[C@@H]2c3cccc4[nH]c(C)c(c34)C[C@H]2N(C)C1 | 191 to 192
O=C1CCN(c2ncc(-c3ccc(Cl)cc3Cl)nn2)CC1 | 120 to 122
CCCCc1nc(C(O)CCC)c(C(N)=O)n1Cc1ccc(-c2ccccc2C(=O)O)cc1 (stereo not given) | > 110
CC(C)(C)OC(=O)[C@@H]1CCC(=O)N1Cc1ccccc1 | 59 to 63
O=C(NC1CCN(CCCOc2ccccc2-c2ncc(C(=O)O)c(O)n2)CC1)c1ccccc1 | 145 to 146
COC(=O)c1nc(-c2ccc(Cl)c(F)c2F)nc(N)c1Br | 175 to 178
Cc1cc(C)c2c(c1O)C(NCc1ccccc1)=C(c1ccccc1)C2 | 214 to 215
COC(=O)c1nc(-c2ccccn2)n2c1CN=C(c1ccccc1Cl)c1cc(Cl)ccc1-2 | 282 to 285
Cc1nc(C(CC(C)C)Nc2c(C#N)cnn3cccc23)sc1C (stereo not given) | 138
CCCCCCCCNc1nc(C=O)cs1 | 60 to 62
COC(=O)CN1C(=S)CN=C(c2ccccc2Cl)c2cc(Cl)ccc21 | 191 to 192
CCOC(=O)c1cnc(Nc2cc(OC)ccc2OC)[nH]c1=O | 221 to 223
Nc1cccnc1Nc1ccccc1C(=O)c1cccc(F)c1 | 135 to 137
C=Cc1nc(-c2ccco2)c2ncn(Cc3ccc(OC)cc3)c2n1 | 94 to 95
Nc1ccc(-c2cc3c(Oc4ccc(Cl)cc4)cncc3s2)cc1 | 178 to 182
CC(C)c1ccc(Cc2ccc(CC#N)n2C)cc1 | 59 to 64

SMILES | melting point [°C]
CCCn1c(=O)c2c(nc(C3CCC(=O)C3)n2Cc2ccccc2)n(CCC)c1=O (stereo not given) | 145
CCOC(=O)C1CC1c1cc(=O)c2cc(-c3ccccc3)ccc2o1 (stereo not given) | 134 to 141
COc1ccc(COc2cccnc2NC(=S)Nc2ccccc2)cc1 | 123 to 125
CC(C)COc1c(-c2ccc(S(N)(=O)=O)cc2)cnn(-c2cccc(Cl)c2)c1=O | 80 to 85
CCOC(=O)c1c(O)c2ccc(Br)cc2c(=O)n1CC1CC1 | 105 to 106
CC(=O)N1c2ccc(S(=O)(=O)C[N+](=O)[O-])c(C)c2CC1C (stereo not given) | 157
CCOC(=O)C1(N2C(=O)c3cccc(F)c3C2=O)CC1 | 164
CC(C)(CF)C(O)(Cn1ncnc1S)C(Cl)=CCl (stereo not given) | 162 to 164
COCOc1ccc(C=CC(=O)c2c(O)cc(OC)cc2OC)cc1 | 104
CNC(=N)Nc1nc(-c2ccc(OC)cc2)c(-c2ccc(OC)cc2)s1 | 155 to 157
Cc1cc(C)c2nc(NCCCO)n(Cc3nc(C)ccc3O)c2c1 | 170
CC(C)Cn1c(-c2c(F)cccc2F)c(Br)nc(Br)c1=O | 125 to 126
O=C(O)c1ccc2cc(Cl)ccn2c1=O | > 250
O=C(CN1CCOCC1)Nc1ccc(-n2nc(C3CC3)cc2C2CC2)cc1 | 178 to 184
CCCCCC[C@H]1C[C@@H](C)OC1=O (relative stereo) | 28.5
COc1cc(N2CCN(C[C@@H](O)CO)CC2)ccc1Nc1ncc2ccc(-c3ccccc3OC)n2n1 | 83 to 90
COc1cc2c(cc1O)CCN(Cc1cccc(NS(C)(=O)=O)c1)C2 | 99 to 101
Nc1nc2c(ncn2[C@@H]2CO[C@H](CO)[C@@H](O)C2)c(=O)[nH]1 | > 300
Cc1c(CCl)nc2c(NC(=O)C(C)(C)C)cccn12 | 168
CC(C)(C)C(=O)Oc1cc2c(s1)CCN(C(C(=O)C1CC1)c1ccccc1F)C2 (stereo not given) | 91 to 94
Cc1ccc(C(C)(C)Cl)cc1C | -20 to -19
O=C(Nc1cccc2[nH]ccc12)c1cc([N+](=O)[O-])ccc1O | > 260
CCOC(=O)c1cc(-c2csc(-c3cccnc3)n2)[nH]n1 | 105 to 107
CC(CN1CC(=O)N(CN2CCN(C)CC2)C(=O)C1)N1CC(=O)N(CN2CCN(C)CC2)C(=O)C1 (stereo not given) | 93 to 96
COC(=O)C1(Sc2cc(N3C(=O)C4=CCCCC4C3=O)c(F)cc2Cl)CCC1 (stereo not given) | 98

SMILES | melting point [°C]
N#Cc1ccc(CNCCO)cc1 | < 60
CCc1ccc(C2CCN(CCCCNC(=O)c3ccc(NC(=O)c4ccc(Cl)cc4)cc3)CC2)c(OC)c1 | 235
COc1c(-c2cc3c(s2)CCC(C)(C)C3O)ccc2c(=O)c(C(=O)O)cn(C3CC3)c12 (stereo not given) | 93 to 94
NC(=O)C(c1ccccc1)(c1ccccc1)C1CCN(Cc2ccccc2)C1 (stereo not given) | 135 to 138
Fc1ccc(Br)c2ccsc12 | 47 to 48
COC(=O)c1ccc(C(O)c2cccnc2)cc1 (stereo not given) | 151
O=C(O)C1(c2ccsc2)CC1 | 132 to 133
C[C@H](C(=O)c1ccccc1F)n1ccn(-c2ccc(OCC(F)(F)C(F)F)cc2)c1=O | 71 to 73
C#CCCOc1ccc(/C=C/C(=O)Nc2ccccc2C(=O)O)cc1OC | 178 to 180
CCOC(=O)C1=C(COCC=NO)NC(C)=C(C(=O)OC)C1c1ccccc1Cl (stereo not given) | 161 to 162
Fc1cccc(OC2CN(C(c3ccccc3)c3ccccc3)C2)c1 | 81 to 82
COCCOc1ccc2c(C(C[N+](=O)[O-])c3cccc(NC(=O)OCc4ccccc4)c3C)c[nH]c2c1 (stereo not given) | 125
CCN(C(=O)C(C)Cl)c1cn(-c2cccnc2)nc1Cl (stereo not given) | 94 to 105
CCOc1ccc2[nH]cc(C(=O)NCc3ccccc3)c(=O)c2n1 | 199
COC(=O)c1cccc(CNC(=O)C2Cc3ccccc3N2S(=O)(=O)c2ccc(-c3cccc(C(F)(F)F)c3)cc2)c1 (stereo not given) | 50
COc1cccc(C2C(CN(C)C)CC(=O)N2c2ccccc2)c1 (stereo not given) | 88 to 92
Cc1c(C#N)cccc1C(=O)c1ccc(Cl)cc1 | 84
CCCCc1nc2c(N)nc3cc(-c4cccnc4)ccc3c2n1CCNC(=O)NC(C)C | 240 to 241
Nc1c([N+](=O)[O-])cnn1-c1c(Cl)cc(C(F)(F)F)c(F)c1Cl | 156
COC(=O)c1cccc(C(=O)Cc2cccc(Br)n2)c1 | 84 to 86
O=C(/C=C/c1ccc(C(F)(F)F)cc1-c1cccnc1)Nc1ccc2[nH]ccc2c1 | 196 to 197
CC(C)(C)c1nnc(N=C2SC[C@@H]3Cc4ccccc4CN23)s1 | 137
Nc1cc(C(Cl)(Cl)Cl)ccn1 | 114
CC(=O)NC1(CNS(=O)(=O)c2ccccc2)CCN(C(=O)OC(C)(C)C)CC1 | 226 to 227
Nc1c(Cl)cc(C(O)CNCCCCCCOCCCCc2ccccc2)cc1Cl (stereo not given) | 74 to 76

SMILES | melting point [°C]
Cc1ccc(S(=O)(=O)N(CCc2cccs2)CC(=O)N[C@@H](Cc2ccccc2)C(=O)O)cc1 | > 200
CCN1CCCC1CNC(=O)c1c(C)[nH]c2ccccc12 (stereo not given) | 132 to 135
CC(C)c1ccc(OC(Cc2ccc(OCCNC(=O)c3ccc(-c4ccc(F)cc4)cc3)cc2)C(=O)O)cc1 (stereo not given) | 192 to 193
CCC1(CC)c2cc(-c3nc4ccccc4s3)ccc2-c2ccc(N(c3ccc(Oc4ccc([N+](=O)[O-])cc4)cc3)c3ccc(Oc4ccc([N+](=O)[O-])cc4)cc3)cc21 | 223 to 225
O=C(O)c1ccc2cn[nH]c2c1 | > 250
COC(=O)c1ccc(-c2ccc(-c3ccccc3)c(-c3ccc4c(c3)C(C)(C)CCC4(C)C)c2)c(OC)c1 | 144 to 146
CC(=O)Nc1c(C(=O)c2cccnc2)[nH]c2cc(Cl)ccc12 | 213 to 214
O=S1OC(c2ccc(F)cc2)C(Cn2cncn2)(c2ccc(Cl)cc2Cl)O1 (stereo not given) | 170 to 171
CCCc1nn(CC)c2c(=O)[nH]c(-c3cc(S(=O)(=O)Cl)ccc3OCC)nc12 | 170 to 172
COCC1(C)Oc2ccc(C#N)cc2C2OC21 (stereo not given) | 88 to 90
O=[N+]([O-])c1cc(F)ccc1NC1CCN(Cc2ccccc2)CC1 | 86 to 87
CC(=O)CC(C)c1ccc(-c2ccccc2)cc1 (stereo not given) | 67
Cc1nc2c(N)nc3ccccc3c2n1CCOCc1ccccc1 | 159 to 160
O=C(NCC(C(=O)Nc1n[nH]c(=S)s1)c1ccccc1)OCc1ccccc1 (stereo not given) | 201 to 202
COc1cc(Nc2c(C#N)cnc3cc(/C=C/CCN4CCOCC4)ccc23)cc(OC)c1OC | 128 to 130
O=C(O)c1ccc(-n2ncc3ccccc32)cc1 | 171 to 172
CCOC(=O)c1c(-c2ccc(F)cc2)cc(-c2ccccc2)n1C(C)C | 97 to 100
CN(Cc1ccccc1)S(=O)(=O)CC(N)=O | 124 to 127
O=C1c2ccc(Br)cc2OCC1n1ccnc1 (stereo not given) | 201 to 203
O=C(O)COc1ccc(C(=O)NCC2CCN(c3ccncc3)CC2)cc1 | 84 to 86
CC(C)(C)c1ccc(C(=O)Nc2ccc3oc4c(c3c2)CCCC4)cc1 | 185 to 186
CCCCc1cc(OCc2ccc(-c3ccccc3C(=O)O)cc2)c2ccccc2n1 | 145
CCC([O-])=C(C(=O)OCc1ccccc1)N1C(=O)CC1[N+](CC)(CC)CC (stereo not given) | 107
Fc1cccc(Cl)c1-c1nc(F)n(-c2ccccc2C(F)(F)F)n1 | 68 to 70
COC(=O)Cn1c(C(=O)O)cc2ccccc21 | 190

— a melting point compilation (Tetko et al.; mined from patent text by program, amines drawn as free bases though some values may be those of a salt)
